Assay results from patent US20090215714A1 (priority 2004, published 2009).
“Also recorded” adds a separate entry of the source.

Experiments:
Type in all cases: in vivo, human
[1] = test system: treatment emergent mania (YMRS score); assay: Treatment-emergent mania/hypomania by Young Mania Rating Scale (YMRS) in the clinical trial
Procedure: (§1) 65 subjects with either bipolar disorder I or II, as determined by the Structured Clinical Interview for DSM-IV-Patient Version (SCID), were studied during a depressive episode, as determined by a Hamilton Depression Rating Scale (HAM-D) score of 16 or greater. […] HAM-D scores for every subject were evaluated and recorded once a week for twelve weeks following baseline assessment.
Tohen et al., (2003) Arch. Gen. Psychiatry, 60:1079-88.

[2] = test system: depressive episode in subjects with bipolar disorder I or II (HAM-D score); assay: Double-blind clinical trial of cytidine add-on to divalproex; HAM-D scores in bipolar depression
Description: The new methods are based on a double-blind, long-term clinical trial designed to assess the impact of cytidine on patients with bipolar disorder who were undergoing a major depressive episode.
as §1
The HAM-D scale is a 17-item scale used in the art to assess the severity of depression in patients already diagnosed with an affective disorder. Higher scores indicate more severe depression. Questions posed to subjects relate to symptoms such as depressed mood, guilty feelings, suicide, sleep disturbances, anxiety levels, and weight loss. Hamilton, (1960) J. Neurology and Neurosurgery in Psychiatry, 23:56-62.

[3] = test system: Glu, Gln, GABA and Lac in frontal gray matter (anterior cingulate); assay: Single voxel 1H MRS study of brain metabolites in frontal gray matter; conditions: for Gray Matter Glu Concentration, Mean / gray matter GABA concentration, Mean / gray matter Gln concentration, Mean / gray matter Lac concentration, Mean: cytidine group n = 19
Procedure: A companion imaging single voxel ^1H MRS study to the behavioral study described in Example 1 examined Glx and Lac changes in frontal gray matter. […] Brain MRS was performed using a 3.0 Tesla GE whole body imaging system (GE VH/i, USA). The localized MR spectra were recorded using a point-resolved spatially localized spectroscopy (PRESS) sequence on a General Electric 3T scanner, which was optimized for acquisition of ^1H MR spectra from the frontal lobe. Voxel size was 1.5×1.5×1.5 cm. The voxels were verified in scout views in T2 images obtained vertically in the Z-axis to include predominantly gray matter of the anterior cingulate for the frontal brain region. The acquisition parameters were: repetition time (TR), 2000 ms; echo time (TE), 35 ms; average=128, phase size-cycling=8, and acquisition time, 4 minutes 16 seconds.

[4] = over the 4 week period, p=0.032

In the case of `Nc1ccn([C@@H]2O[C@H](CO)[C@@H](O)[C@H]2O)c(=O)n1` [cytidine], the “subjects with treatment-emergent mania, modified criteria” value ([1]; YMRS less than 12 at baseline and greater than 12 subsequently, cytidine plus divalproex) is reported as “no subjects; also recorded: one subject”, the “subjects with treatment-emergent mania” value ([1]; YMRS less than 15 at baseline and 15 or greater anytime during the study, 12 weeks, cytidine plus divalproex) is reported as “No subject” and the “subjects with treatment-emergent hypomania” value ([1]; cutoff of YMRS score of 9, 12-week trial period, vs six on placebo, p=0.041) is reported as “one subject”. The “subjects with treatment emergent hypomania” value ([1]; cutoff of YMRS score of 10, cytidine plus divalproex) was “one subject”, the “affective improvement compared to placebo supplementation (FIG. 1)” value ([2]; HAM-D, add-on to divalproex, twelve weeks) was “enhanced the affective improvement” and the “mean difference in HAM-D scores between groups” value ([2]; cytidine vs placebo, both add-on to divalproex, week 2 through 12, oral cytidine 1 gram/day) was 2.66±0.65. For the same molecule, the “increase in antidepressant efficacy compared to divalproex alone” value ([2]; oral cytidine added to divalproex, bipolar depression) was 10%, the “Gray Matter Glu Concentration, Mean” value ([3]; Baseline) was 11.38 millimolar and the “gray matter GABA concentration, Mean” value ([3]; Baseline) was 0.91 millimolar. The “gray matter Gln concentration, Mean” value ([3]; Baseline) was 7.38 millimolar, the “gray matter Lac concentration, Mean” value ([3]; Baseline) was 1.71 millimolar and the “Gray Matter Glu Concentration, Mean” value ([3]; Week 2) was 9.18 millimolar. The “gray matter GABA concentration, Mean” value ([3]; Week 2) was 0.97 millimolar, the “gray matter Gln concentration, Mean” value ([3]; Week 2) was 7.21 millimolar and the “gray matter Lac concentration, Mean” value ([3]; Week 2) was 1.44 millimolar. For the same molecule, the “Gray Matter Glu Concentration, Mean” value ([3]; Week 4) was 8.85 millimolar, the “gray matter GABA concentration, Mean” value ([3]; Week 4) was 1.03 millimolar and the “gray matter Gln concentration, Mean” value ([3]; Week 4) was 6.99 millimolar. For the same molecule, the “gray matter Lac concentration, Mean” value ([3]; Week 4) was 1.42 millimolar, the “decrease in Glu levels” value ([3]; over the 4-week period, p<0.01) was 22.2% and the “decrease in Gln levels” value ([3]; over the 4-week period, p=0.241) was 5.3%. The “decrease in Lac levels” value [3, 4] was 17.0% and the “increase in GABA levels” value [3, 4] was 13.2%.
